Reference: patent publication US9526713B2, “Use of dencichine in preparation of drug for treating thrombocytopenia” (KUNMING SHENGHUO PHARMACEUTICAL (GROUP) CO., LTD., priority 2013, dated 2016)
Where two headings read alike, the source gives them in different places.

Experiments:
thrombocyte aggregation = assay: Thrombocyte aggregation rate of rats injected with carboplatin; type: in vivo, rat
Text: So far, it has been reported that a little dencichine can be used as hemostatic drug in prior art, as disclosed in the patent application with publication No. CN1292376A that administrating a little dencichine can achieve hemostasis. However, it has never been reported that dencichine is able to treat Thrombocytopenia.

[1] = Body weight of rats suffering thrombopenia induced by carboplatin; type: in vivo, Wistar rats
Protocol: 81 rats are prepared and randomly divided into eight groups: • blank control group, • high-dose group A (4 mg/kg, intraperitoneal injection, non modeling), • model group (40 mg/kg, tail vein injection), • interleukin-11 group (260 μg/kg, subcutaneous injection), • high dose group B (4 mg/kg, intraperitoneal injection, modeling), • high dose group (4 mg/kg, intraperitoneal injection), • middle dose group (1 mg/kg, intraperitoneal injection), and • low dose group (0.25 mg/kg, intraperitoneal injection),
wherein, the Model group has 11 rats, and the other groups has 10 rats respectively. Before the experiment, the animals are asked to adapt the environment for 2 days, and then blood is taken from their tails for detecting hematological index.
After administration for 10 days, blood is taken from tails of rats from blank control group, high-dose group A, and positive drug group respectively for detecting hematological index.
Thereafter, all animals, except for those of blank group and high-dose group A, are individually injected with carboplatin (40 mg/kg) for modeling, and followed by successive administration for 15 days. During these 15 days, the rats of high-dose group A and high dose group B are stopped from administration, and taken blood from the tail on 5th day, 10th day and 15th day after the modeling respectively for detecting hematological indices. After 15th day of modeling, carboplatin (40 mg/kg) is injected again for a second modeling, and all the groups take successive administration according to the foregoing method, once a day for successive 10 days. Before each hematological indices detection, animals are weighed respectively. Taking the tails' blood of rats on 5th day after the second injection of carboplatin for detecting hematological indices, and taking the tails' blood of rats on 10th day after the second injection of carboplatin for detecting the indices of hematology, reticulocytes and coagulation; and weighing animals and killing them; and weighing liver, thymus, spleen and adrenal gland taken from the dead rats, and calculating out viscera indices; further taking out marrow for doing pathological examination.

ITP model mice = type: in vivo, BALB/C mice; details: 14 days
Text: (§1) Health BALB/C mice (body weight 18˜22 g) are randomly divided into six groups with 12 mice for each group:
Blank group, Model group, Prednisone Acetate Group, Dencichine (high dose, middle dose, and low dose) groups.
Modeling method: blood was taken from orbital vein of BALB/C Mice, followed by EDTA-Na2 Anticoagulation, and then platelets are separated and washed. The prepared platelet suspension solution was mixed uniformly with equal amount of complete Freund's adjuvant and incomplete Freund's adjuvant respectively. In the first week, antigen containing complete Freund's adjuvant is subcutaneously injected into hind paw, back and groin of the guinea pig. Injections are done for 4 times in total, with 5 spots for each injection and 100 μl for each spot. In the 6th week, non-anticoagulated whole blood was taken from the guinea pigs, and was centrifuged for 10 min under 3000 r/min to produce a supernate, which is the anti-mouse platelet serum (GP-APS) of the guinea pigs. The supernate was placed in a water bath (56° C.) for 30 min for complement inactivation, and then the inactivated supernate was diluted with normal saline, followed by test of antibody titers by agar diffusion method, and finally was stored in a refrigerator at −20° C. for later use.
(§2) Except the normal group, the mice of the remain five groups are injected with anti-mouse platelet serum (APS) of the guinea pig with a dose of 100 μl/20 g body weight, via intraperitoneal injection, on the 1st, 3rd, 5th, 7th, 9th, 11th and 13th day of the experiment.
(§3) The mice of each group are given intragastric administration from the first day. […] The mice of the prednisone acetate group are given intragastric administration of suspension of prednisone acetate at 5 mg/(kg·d). The mice of other groups are given intragastric administration of same volumetric of normal saline at 0.2 ml/20 g body weight. Intragastric administration for once each day, and continuous administration for 14 days.
Observation of the Subcutaneous Purpura:
Class I, minor bleeding are found at injection sites, and hemorrhagic spots are interspersed at other sites;
Class II, overt bleeding are found at injection sites, and ecchymosis and petechiae are found at other sites;

[2] = type: in vivo, BALB/C mice
Protocol: as §1, §2, §3
The weights of mice of each group are respectively measured before modeling, on 7th test day, and on 14th test day.

rabbits = assay: Influence of Dencichine for injection on the platelet count of rabbits (single-dose injection); type: in vivo, rabbit
[3] = high dose group (6 mg/kg per Table 8) intragastric
[4] = low dose group (1.5 mg/kg per Table 8) intragastric
[5] = middle dose group (3 mg/kg) intragastric

N[C@@H](CNC(=O)C(=O)O)C(=O)O [Dencichine, β-N-oxalyl-L-α, β-diaminopropionic acid]
thrombocyte aggregation rate (thrombocyte aggregation): increasing thrombocyte aggregation rate | body weight gain compared with control group ([1]; high dose group A, 4 mg/kg i.p., non modeling): slower body weight gain | body weight ([1]; high dose group A, 4 mg/kg i.p., non modeling, 5th day after first injection of carboplatin): 303.5 ± 17.17 g | body weight ([1]; high dose group A, 4 mg/kg i.p., non modeling, 5th day after second injection of carboplatin): 360.7 ± 24.05 g | body weight ([1]; high dose group A, 4 mg/kg i.p., non modeling, 10th day after first injection of carboplatin): 315.0 ± 17.29 g | body weight ([1]; high dose group A, 4 mg/kg i.p., non modeling, 10th day after second injection of carboplatin): 362.8 ± 28.63 g | body weight ([1]; high dose group A, 4 mg/kg i.p., non modeling, 15th day after first injection of carboplatin): 342.5 ± 19.93 g | body weight ([1]; high dose group A, 4 mg/kg i.p., non modeling, before experiment): 187.5 ± 7.37 g | body weight ([1]; high dose group A, 4 mg/kg i.p., non modeling, prophylactic administration for 10 days): 281.1 ± 13.19 g | body weight ([1]; high dose group B, 4 mg/kg i.p., prophylactic, modeling, 5th day after first injection of carboplatin): 289.9 ± 18.16 g | body weight ([1]; high dose group B, 4 mg/kg i.p., prophylactic, modeling, 5th day after second injection of carboplatin): 317.8 ± 25.87 g | body weight ([1]; high dose group B, 4 mg/kg i.p., prophylactic, modeling, 10th day after first injection of carboplatin): 308.2 ± 16.69 g | body weight ([1]; high dose group B, 4 mg/kg i.p., prophylactic, modeling, 10th day after second injection of carboplatin): 314.7 ± 28.71 g | body weight ([1]; high dose group B, 4 mg/kg i.p., prophylactic, modeling, 15th day after first injection of carboplatin): 318.7 ± 17.76 g | body weight ([1]; high dose group B, 4 mg/kg i.p., prophylactic, modeling, before experiment): 187.6 ± 9.46 g | body weight ([1]; high dose group B, 4 mg/kg i.p., prophylactic, modeling, prophylactic administration for 10 days): 284.7 ± 15.43 g | body weight ([1]; high dose group, 4 mg/kg i.p., 5th day after first injection of carboplatin): 298.8 ± 24.10 g | body weight ([1]; high dose group, 4 mg/kg i.p., 5th day after second injection of carboplatin): 324.6 ± 23.20 g | body weight ([1]; high dose group, 4 mg/kg i.p., 10th day after first injection of carboplatin): 314.0 ± 27.14 g | body weight ([1]; high dose group, 4 mg/kg i.p., 10th day after second injection of carboplatin): 316.6 ± 15.35 g | body weight ([1]; high dose group, 4 mg/kg i.p., 15th day after first injection of carboplatin): 341.8 ± 32.01 g | body weight ([1]; high dose group, 4 mg/kg i.p., before experiment): 188.8 ± 9.64 g | body weight ([1]; high dose group, 4 mg/kg i.p., prophylactic administration for 10 days): 285.8 ± 20.94 g | body weight ([1]; low dose group, 0.25 mg/kg i.p., 5th day after first injection of carboplatin): 302.6 g | body weight ([1]; low dose group, 0.25 mg/kg i.p., 5th day after second injection of carboplatin): 325.9 g | body weight ([1]; low dose group, 0.25 mg/kg i.p., 10th day after first injection of carboplatin): 317.2 g | body weight ([1]; low dose group, 0.25 mg/kg i.p., 10th day after second injection of carboplatin): 325.2 g | body weight ([1]; low dose group, 0.25 mg/kg i.p., 15th day after first injection of carboplatin): 343.2 g | body weight ([1]; low dose group, 0.25 mg/kg i.p., before experiment): 189.6 g | body weight ([1]; low dose group, 0.25 mg/kg i.p., prophylactic administration for 10 days): 288.7 g | body weight ([1]; middle dose group, 1 mg/kg i.p., 5th day after first injection of carboplatin): 291.5 ± 26.18 g | body weight ([1]; middle dose group, 1 mg/kg i.p., 5th day after second injection of carboplatin): 328.0 ± 33.38 g | body weight ([1]; middle dose group, 1 mg/kg i.p., 10th day after first injection of carboplatin): 315.0 ± 19.28 g | body weight ([1]; middle dose group, 1 mg/kg i.p., 10th day after second injection of carboplatin): 334.0 ± 28.15 g | body weight ([1]; middle dose group, 1 mg/kg i.p., 15th day after first injection of carboplatin): 329.8 ± 23.77 g | body weight ([1]; middle dose group, 1 mg/kg i.p., before experiment): 186.2 ± 11.31 g | body weight ([1]; middle dose group, 1 mg/kg i.p., prophylactic administration for 10 days): 282.8 ± 17.29 g | Subcutaneous purpura, bleeding degree + (ITP model mice; [3]): 6 number of mice | Subcutaneous purpura, bleeding degree ++ (ITP model mice; [3]): 2 number of mice | Subcutaneous purpura, bleeding degree +++ (ITP model mice; [3]): 0 number of mice | Subcutaneous purpura, bleeding degree − (ITP model mice; [3]): 0 number of mice | Subcutaneous purpura, bleeding degree + (ITP model mice; [4]): 4 number of mice | Subcutaneous purpura, bleeding degree ++ (ITP model mice; [4]): 4 number of mice | Subcutaneous purpura, bleeding degree +++ (ITP model mice; [4]): 0 number of mice | Subcutaneous purpura, bleeding degree − (ITP model mice; [4]): 0 number of mice | Subcutaneous purpura, bleeding degree + (ITP model mice; [5]): 5 number of mice | Subcutaneous purpura, bleeding degree ++ (ITP model mice; [5]): 3 number of mice | Subcutaneous purpura, bleeding degree +++ (ITP model mice; [5]): 0 number of mice | Subcutaneous purpura, bleeding degree − (ITP model mice; [5]): 0 number of mice | body weight ([2]; high dose group (6 mg/kg per Table 8) intragastric, Day 0): 19.5 ± 1.5 g | body weight ([2]; high dose group (6 mg/kg per Table 8) intragastric, Day 7): 19.8 ± 1.4 g | body weight ([2]; high dose group (6 mg/kg per Table 8) intragastric, Day 14): 20.3 ± 1.8 g | body weight ([2]; low dose group (1.5 mg/kg per Table 8) intragastric, Day 0): 20.2 ± 2.0 g | body weight ([2]; low dose group (1.5 mg/kg per Table 8) intragastric, Day 7): 20.4 ± 1.5 g | body weight ([2]; low dose group (1.5 mg/kg per Table 8) intragastric, Day 14): 21.1 ± 1.6 g | body weight ([2]; middle dose group (3 mg/kg) intragastric, Day 0): 19.9 ± 1.9 g | body weight ([2]; middle dose group (3 mg/kg) intragastric, Day 7): 20.1 ± 1.7 g | body weight ([2]; middle dose group (3 mg/kg) intragastric, Day 14): 20.8 ± 1.7 g | PLT (rabbits; 0.04 mg/kg, 0 min): 523.3 ± 78.5 ×10^9/L | PLT (rabbits; 0.04 mg/kg, 30 min): 451.0 ± 144.5 ×10^9/L | PLT (rabbits; 0.04 mg/kg, 60 min): 504.0 ± 87.8 ×10^9/L | PLT (rabbits; 0.20 mg/kg, 0 min): 574.0 ± 64.3 ×10^9/L | PLT (rabbits; 0.20 mg/kg, 30 min): 502.3 ± 60.8 ×10^9/L | PLT (rabbits; 0.20 mg/kg, 60 min): 518.2 ± 128.5 ×10^9/L | PLT (rabbits; 1.00 mg/kg, 0 min): 491.2 ± 163.1 ×10^9/L | PLT (rabbits; 1.00 mg/kg, 30 min): 526.5 ± 143.8 ×10^9/L | PLT (rabbits; 1.00 mg/kg, 60 min): 541.0 ± 121.6 ×10^9/L | change on the platelet count of rabbits (rabbits; single-dose injection, various doses): no obvious change
